Results reported in US20240182453A1, “NOVEL SUBSTITUTED PYRAZINE-CARBOXAMIDE DERIVATIVES” (Boehringer Ingelheim International GmbH, priority 2022, published 2024).

Target: human metabotropic Glutamate 4 receptor (mGluR4) (Homo sapiens (Human), UniProt Q14833)
Experiment: Assay A: in vitro testing of mGluR4 potency (glutamate-induced cAMP lowering, HTRF cAMP)
Assay type: cell-based
Conditions: HEK293 cells overexpressing human mGluR4; 10 uM L-glutamic acid, 1 uM forskolin; compounds of the present invention
Summary of the method: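 HEK293 cells overexpressing human mGluR4 treated 30 min at room temperature with compound plus 10 uM L-glutamate, 1 uM forskolin, 0.5 mM IBMX, 0.1% BSA, 1% DMSO. cAMP read by HTRF (665/615 nm ratio), normalized to glutamate (100%) and no-glutamate (0%) controls as percent of control.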

Chain of human metabotropic Glutamate 4 receptor (mGluR4) (Q14833 33-912): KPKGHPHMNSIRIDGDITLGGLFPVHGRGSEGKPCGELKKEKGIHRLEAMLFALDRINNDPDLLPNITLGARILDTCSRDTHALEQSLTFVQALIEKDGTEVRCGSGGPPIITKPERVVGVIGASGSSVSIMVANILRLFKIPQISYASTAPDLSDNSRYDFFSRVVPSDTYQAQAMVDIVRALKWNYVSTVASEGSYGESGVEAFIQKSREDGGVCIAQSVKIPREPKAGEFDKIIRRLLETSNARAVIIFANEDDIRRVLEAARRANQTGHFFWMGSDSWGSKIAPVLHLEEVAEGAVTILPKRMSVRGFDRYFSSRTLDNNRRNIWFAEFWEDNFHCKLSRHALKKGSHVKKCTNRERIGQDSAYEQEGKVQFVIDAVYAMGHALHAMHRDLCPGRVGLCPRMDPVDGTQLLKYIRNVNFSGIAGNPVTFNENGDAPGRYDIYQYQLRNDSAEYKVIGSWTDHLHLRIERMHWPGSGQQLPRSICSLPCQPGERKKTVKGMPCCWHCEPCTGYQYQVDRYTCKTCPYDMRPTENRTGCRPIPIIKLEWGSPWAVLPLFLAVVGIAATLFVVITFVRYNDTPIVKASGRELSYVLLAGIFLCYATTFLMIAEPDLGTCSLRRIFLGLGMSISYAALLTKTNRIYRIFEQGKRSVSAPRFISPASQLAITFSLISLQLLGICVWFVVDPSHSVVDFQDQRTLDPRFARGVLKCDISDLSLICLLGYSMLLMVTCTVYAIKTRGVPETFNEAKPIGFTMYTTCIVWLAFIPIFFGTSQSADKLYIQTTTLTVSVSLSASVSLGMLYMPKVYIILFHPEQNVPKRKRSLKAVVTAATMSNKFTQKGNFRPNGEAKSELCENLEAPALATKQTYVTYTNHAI

Row | SMILES | IC50
1 | COCCn1c(C(NC(=O)c2cnc(C)cn2)C2CCCO2)nc2cc(C(F)(F)F)ccc21 (stereo not drawn) [Example 19-2, N-{[1-(2-methoxyethyl)-5-(trifluoromethyl)-1H-1,3-benzodiazol-2-yl](oxolan-2-yl)methyl}-5-methylpyrazine-2-carboxamide] | 62 nM
2 | Cc1cnc(C(=O)NC(c2nc3cc(OC(F)(F)F)ccc3n2C)C2CCCOC2)cn1 (single isomer, unassigned) [Example 78-2, 5-methyl-N-{[1-methyl-5-(trifluoromethoxy)-1H-1,3-benzodiazol-2-yl](oxan-3-yl)methyl]pyrazine-2-carboxamide] | 25 nM
3 | CCn1c([C@@H](NC(=O)c2cnc(C)cn2)[C@]2(O)CCCOC2)nc2cc(F)ccc21 [Example 150, N-[(R)-(1-ethyl-5-fluoro-1H-1,3-benzodiazol-2-yl)[(3R)-3-hydroxyoxan-3-yl]methyl]-5-methylpyrazine-2-carboxamide] | 14 nM
4 | CCn1c([C@@H](NC(=O)c2cnc(C)cn2)[C@]2(O)CCOC2)nc2cc(Cl)ccc21 [Example 154, N-[(R)-(5-chloro-1-ethyl-1H-1,3-benzodiazol-2-yl)[(3R)-3-hydroxyoxolan-3-yl]methyl]-5-methylpyrazine-2-carboxamide] | 84 nM
5 | CCn1c([C@@H](NC(=O)c2cnc(C)cn2)C(C)(C)O)nc2cc(Cl)ccc21 [Example 81, N-[(1R)-1-(5-chloro-1-ethyl-1H-1,3-benzodiazol-2-yl)-2-hydroxy-2-methylpropyl]-5-methylpyrazine-2-carboxamide] | 14 nM
6 | CCn1c(C(NC(=O)c2cnc(C)cn2)C2CCOC2)nc2cc(F)c(F)cc21 (single isomer, unassigned) [Example 159, N-[(1-ethyl-5,6-difluoro-1H-1,3-benzodiazol-2-yl)(oxolan-3-yl)methyl]-5-methylpyrazine-2-carboxamide] | 30 nM
7 | O=C(N[C@@H](CC1CC1)c1nc2cc(F)ccc2n1C1CC1)c1cnc(C(F)F)cn1 [Example 114, N-[(1S)-2-cyclopropyl-1-(1-cyclopropyl-5-fluoro-1H-1,3-benzodiazol-2-yl)ethyl]-5-(difluoromethyl)pyrazine-2-carboxamide] | 15 nM
8 | Cc1cnc(C(=O)NC(c2nc3ccc(C(F)(F)F)cc3n2CC(F)F)C2CCOC2)cn1 (single isomer, unassigned) [Example 146, N-{[1-(2,2-difluoroethyl)-6-(trifluoromethyl)-1H-1,3-benzodiazol-2-yl](oxolan-3-yl)methyl}-5-methylpyrazine-2-carboxamid] | 16 nM
9 | Cn1c(C(NC(=O)c2cnc(C(F)F)cn2)C2CCCO2)nc2cc(OC(F)(F)F)ccc21 (stereo not drawn) [Example 113-1, 5-(difluoromethyl)-N-{[1-methyl-5-(trifluoromethoxy)-1H-1,3-benzodiazol-2-yl](oxolan-2-yl)methyl}pyrazine-2-carboxamide] | 45 nM
10 | COCCn1c(C(NC(=O)c2cnc(C(F)F)cn2)C2CCOC2)nc2cc(F)ccc21 (single isomer, unassigned) [Example 48-2, 5-(difluoromethyl)-N-{[5-fluoro-1-(2-methoxyethyl)-1H-1,3-benzodiazol-2-yl](oxolan-3-yl)methyl} pyrazine-2-carboxamide] | 60 nM
11 | CCn1c(C(NC(=O)c2cnc(C)cn2)C2CCOC2)nc2cc(Cl)ccc21 (single isomer, unassigned) [Example 162, N-[(5-chloro-1-ethyl-1H-1,3-benzodiazol-2-yl)(oxolan-3-yl)methyl]-5-methylpyrazine-2-carboxamide] | 30 nM
12 | CCn1c(C(NC(=O)c2cnc(C)cn2)C2CCOC2)nc2ccc(Cl)cc21 (single isomer, unassigned) [Example 163, N-[(6-chloro-1-ethyl-1H-1,3-benzodiazol-2-yl)(oxolan-3-yl)methyl]-5-methylpyrazine-2-carboxamide] | 27 nM
13 | Cn1c([C@@H](NC(=O)c2cnc(C(F)F)cn2)[C@H]2CCCO2)nc2cc(OC(F)(F)F)ccc21 [Example 113, 5-(difluoromethyl)-N-[(R)-[1-methyl-5-(trifluoromethoxy)-1H-1,3-benzodiazol-2-yl][(2R)-oxolan-2-yl]methyl]pyrazine-2-carboxamide] | 17 nM
14 | COCCn1c([C@@H](NC(=O)c2cnc(C)cn2)[C@@H](C)OC(F)F)nc2cc(OC(F)F)ccc21 [Example 79, N-[(1R,2R)-2-(difluoromethoxy)-1-[5-(difluoromethoxy)-1-(2-methoxyethyl)-1H-1,3-benzodiazol-2-yl]propyl]-5-methylpyrazine-2-carboxamide] | 19 nM

Results, then the compound that gave them:

Row | IC50 | SMILES
15 | 14 nM | Cc1cnc(C(=O)N[C@H](c2nc3ccc(C(F)(F)F)cc3n2C)C2CC2)cn1 [Example 63, N-[(S)-cyclopropyl[1-methyl-6-(trifluoromethyl)-1H-1,3-benzodiazol-2-yl]methyl]-5-methylpyrazine-2-carboxamide]
16 | 4 nM | Cc1cnc(C(=O)N[C@H](c2nc3c(F)c(C)ccc3n2CC(F)F)C2CC2)cn1 [Example 9, N-[(S)-cyclopropyl[1-(2,2-difluoroethyl)-4-fluoro-5-methyl-1H-1,3-benzodiazol-2-yl]methyl]-5-methylpyrazine-2-carboxamide]
17 | 3 nM | COCCn1c([C@@H](NC(=O)c2cnc(C)cn2)C2CC2)nc2cc(Cl)ccc21 [Example 8, N-[(S)-[5-chloro-1-(2-methoxyethyl)-1H-1,3-benzodiazol-2-yl](cyclopropyl)methyl]-5-methylpyrazine-2-carboxamide]
18 | 3 nM | CO[C@H](C)[C@H](NC(=O)c1cnc(C)cn1)c1nc2cc(OC(F)(F)F)ccc2n1C(C)C [Example 123, N-[(1R,2R)-2-methoxy-1-[1-(propan-2-yl)-5-(trifluoromethoxy)-1H-1,3-benzodiazol-2-yl]propyl]-5-methylpyrazine-2-carboxamide]
19 | 4 nM | COCCn1c(C(NC(=O)c2cnc(C)cn2)C2CCCO2)nc2cc(OC(F)(F)F)ccc21 (stereo not drawn) [Example 89-2]
20 | 5 nM | CCn1c([C@@H](NC(=O)c2cnc(C)cn2)C2CC2)nc2c(C)c(C#N)ccc21 [Example 38, N-[(S)-(5-cyano-1-ethyl-4-methyl-1H-1,3-benzodiazol-2-yl)(cyclopropyl)methyl]-5-methylpyrazine-2-carboxamide]
21 | 3 nM | COCCn1c(C(NC(=O)c2cnc(C)cn2)C2CCCO2)nc2cc(C(F)(F)F)ccc21 (single isomer, unassigned) [Example 71-2, N-{[1-(2-methoxyethyl)-5-(trifluoromethyl)-1H-1,3-benzodiazol-2-yl](oxolan-2-yl)methyl}-5-methylpyrazine-2-carboxamide]
22 | 7 nM | Cc1cnc(C(=O)N[C@@H](CC2CC2)c2nc3cc(Cl)ccc3n2CCOC(F)F)cn1 [Example 125, N-[(1S)-1-{5-chloro-1-[2-(difluoromethoxy)ethyl]-1H-1,3-benzodiazol-2-yl}-2-cyclopropylethyl]-5-methylpyrazine-2-carboxamide]
23 | 8 nM | Cc1cnc(C(=O)N[C@@H](CC2CC2)c2nc3cc(OC(F)(F)F)ccc3n2C)cn1 [Example 105, N-[(1S)-2-cyclopropyl-1-[1-methyl-5-(trifluoromethoxy)-1H-1,3-benzodiazol-2-yl]ethyl]-5-methylpyrazine-2-carboxamide]
24 | 6 nM | CO[C@H](C)[C@H](NC(=O)c1cnc(C)cn1)c1nc2cc(C(F)(F)F)ccc2n1C [Example 22, N-[(1R,2R)-2-methoxy-1-[1-methyl-5-(trifluoromethyl)-1H-1,3-benzodiazol-2-yl]propyl]-5-methylpyrazine-2-carboxamide]
25 | 2 nM | Cc1cnc(C(=O)N[C@H](c2nc3c(Cl)c(Br)ccc3n2C)C2CC2)cn1 [Example 42, N-[(S)-(5-bromo-4-chloro-1-methyl-1H-1,3-benzodiazol-2-yl)(cyclopropyl)methyl]-5-methylpyrazine-2-carboxamide]
26 | 8 nM | O=C(N[C@@H](CC1CC1)c1nc2cc(Cl)ccc2n1C1CC1)c1cnc(C(F)F)cn1 [Example 117, N-[(1S)-1-(5-chloro-1-cyclopropyl-1H-1,3-benzodiazol-2-yl)-2-cyclopropylethyl]-5-(difluoromethyl)pyrazine-2-carboaxamide]
27 | 2 nM | COCCn1c([C@@H](NC(=O)c2cnc(C)cn2)C2CC2)nc2cc(C(F)(F)F)ccc21 [Example 35, N-[(S)-cyclopropyl[1-(2-methoxyethyl)-5-(trifluoromethyl)-1H-1,3-benzodiazol-2-yl]methyl]-5-methylpyrazine-2-carboxamide]
28 | 13 nM | COCCn1c(C(NC(=O)c2cnc(C(F)F)cn2)C2CCOC2)nc2cc(C(F)(F)F)ccc21 (stereo not drawn) [Example 90-3]
29 | 13 nM | Cc1cnc(C(=O)N[C@H](c2nc3c(Cl)c(F)ccc3n2C)C2CC2)cn1 [Example 107, N-[(S)-(4-chloro-5-fluoro-1-methyl-1H-1,3-benzodiazol-2-yl)(cyclopropyl)methyl]-5-methylpyrazine-2-carboxamide]
30 | 7 nM | COCCn1c([C@@H](NC(=O)c2cnc(C)cn2)C2CC2)nc2cc(F)ccc21 [Example 6, N-[(S)-cyclopropyl[5-fluoro-1-(2-methoxyethyl)-1H-1,3-benzodiazol-2-yl]methyl]-5-methylpyrazine-2-carboxamide]
31 | 13 nM | COCCn1c([C@@H](NC(=O)c2cnc(C)cn2)[C@H]2CCCO2)nc2cc(C(F)(F)F)ccc21 (single isomer, unassigned) [Example 71]
32 | 4 nM | COCCn1c([C@@H](NC(=O)c2cnc(C)cn2)[C@@H]2CCCO2)nc2cc(OC(F)(F)F)ccc21 [Example 58, N-[(R)-[1-(2-methoxyethyl)-5-(trifluoromethoxy)-1H-1,3-benzodiazol-2-yl][(2S)-oxolan-2-yl]methyl]-5-methylpyrazine-2-carboxamide]
33 | 10 nM | O=C(N[C@@H](CC1CC1)c1nc2cc(F)c(F)cc2n1CCOC(F)F)c1cnc(C(F)F)cn1 [Example 111, N-[(1S)-2-cyclopropyl-1-{1-[2(difluoromethoxy)ethyl]-5,6-difluoro-1H-1,3-benzodiazol-2-yl}ethyl]-5-(difluoromethyl)pyrazine-2-carboxamide]
